Counter-ions that a name gives are not always drawn.
Biological target: T1, HCV polymerase (Hepatitis C virus genotype 1b, UniProt P26663)
T1 construct: a region encoding NS5B (591 amino acids; J Virol 1991 Mar, 65(3), 1105-13) was amplified by PCR; 6 His (N); made in house; host or cells: Escherichia coli
Assay: biochemical
Conditions: read-out: HCV polymerase inhibitory activity IC50

T1 sequence (P26663 2420-3010): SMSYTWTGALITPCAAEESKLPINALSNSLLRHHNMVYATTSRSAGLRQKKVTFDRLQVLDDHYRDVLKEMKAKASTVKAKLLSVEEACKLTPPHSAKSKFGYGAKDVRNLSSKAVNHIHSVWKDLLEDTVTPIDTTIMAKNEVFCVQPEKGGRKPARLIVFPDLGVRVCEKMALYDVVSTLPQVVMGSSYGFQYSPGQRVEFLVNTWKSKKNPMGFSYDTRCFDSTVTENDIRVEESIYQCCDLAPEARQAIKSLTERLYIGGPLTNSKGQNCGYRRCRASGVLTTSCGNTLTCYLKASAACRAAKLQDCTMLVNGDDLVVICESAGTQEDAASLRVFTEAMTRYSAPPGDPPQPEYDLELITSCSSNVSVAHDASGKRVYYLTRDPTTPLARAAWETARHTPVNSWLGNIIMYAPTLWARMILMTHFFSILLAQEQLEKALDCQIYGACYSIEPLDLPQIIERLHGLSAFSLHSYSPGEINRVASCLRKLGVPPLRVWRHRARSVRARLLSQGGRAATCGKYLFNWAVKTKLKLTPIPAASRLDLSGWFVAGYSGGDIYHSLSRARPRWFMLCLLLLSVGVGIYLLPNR

| SMILES | IC50 |
| --- | --- |
| O=C(O)c1ccc2c(c1)nc(-c1ccc(Oc3ccccc3OCCc3ccccc3)cc1)n2C1CCCCC1 [Example 123, 1-cyclohexyl-2-[4-(2-phenethyloxyphenoxy)phenyl]benzimidazole-5-carboxylic acid] | 100 nM |
| O=C(O)c1ccc2c(c1)nc(-c1ccc(OCC(=O)c3ccccc3)cc1)n2C1CCCCC1 [Example 91, 2-(4-benzoylmethoxyphenyl)-1-cyclohexylbenzimidazole-5-carboxylic acid] | 530 nM |
| NC(=O)c1ccc(-c2ccc(Cl)cc2COc2ccc(-c3nc4cc(C(=O)O)ccc4n3C3CCCCC3)cc2)cc1 [Example 195, 2-{4-[2-(4-carbamoylphenyl)-5-chlorobenzyloxy]phenyl}-1-cyclohexylbenzimidazole-5-carboxylic acid] | 23 nM |
| O=C(O)c1ccc2c(c1)nc(-c1ccc(Oc3ccc(OCc4ccccc4)cc3)cc1Cl)n2C1CCCCC1 [Example 149, 2-{4-(4-benzyloxyphenoxy)-2-chlorophenyl}-1-cyclohexylbenzimidazole-5-carboxylic acid] | 150 nM |
| O=C(O)c1ccc2c(c1)nc(-c1ccc(OCc3cc(N4CCCS4(=O)=O)c(F)cc3-c3ccc(Cl)cc3)cc1F)n2C1CCCCC1 [Example 449, 2-[4-{2-(4-chlorophenyl)-4-fluoro-5-(1,1-dioxoisothiazolidin-2-yl)benzyloxy}-2-fluorophenyl]-1-cyclohexylbenzimidazole-5-carboxylic acid hydrochloride] | 25 nM |
| O=C(O)c1ccc(-c2ccc(Cl)cc2COc2ccc(-c3nc4cc(C(=O)O)ccc4n3C3CCCCC3)cc2)cc1 [Example 184, 2-{4-[2-(4-carboxyphenyl)-5-chlorobenzyloxy]phenyl}-1-cyclohexylbenzimidazole-5-carboxylic acid] | 18 nM |
| CC(C)NC(=O)c1cccc(-c2ccc(Cl)cc2)c1COc1ccc(-c2nc3cc(C(=O)O)ccc3n2C2CCCCC2)c(F)c1 [Example 448, 2-[4-{2-(4-chlorophenyl)-6-(isopropylaminocarbonyl)benzyloxy}-2-fluorophenyl]-1-cyclohexylbenzimidazole-5-carboxylic acid hydrochloride] | 200 nM |
| O=C(O)c1ccc2c(c1)nc(-c1ccc(CCc3ccccc3)cc1)n2C1CCCCC1 [Example 77, 1-cyclohexyl-2-(4-phenethylphenyl)benzimidazole-5-carboxylic acid] | 510 nM |
| O=C(O)c1ccc2c(c1)nc(-c1ccc(/C=C/c3ccccc3)cc1)n2C1CCCCC1 [Example 11, 1-cyclohexyl-2-{4-[(E)-2-phenylvinyl]phenyl}-benzimidazole-5-carboxylic acid] | 530 nM |
| CC(=O)N[C@@H](COc1ccc(-c2nc3cc(C(=O)O)ccc3n2C2CCCCC2)cc1)c1ccccc1 [Example 162, 2-{4-[(2R)-2-acetylamino-2-phenylethoxy]phenyl}-1-cyclohexylbenzimidazole-5-carboxylic acid] | 430 nM |
| O=C(O)c1ccc2c(c1)nc(-c1ccc(OCc3ccc(C(=O)NCCO)cc3-c3ccc(Cl)cc3)cc1)n2C1CCCCC1 [Example 355, 2-{4-[2-(4-chlorophenyl)-4-{(2-hydroxyethyl)carbamoyl}-benzyloxy]phenyl}-1-cyclohexylbenzimidazole-5-carboxylic acid hydrochloride] | 15 nM |
| O=C(O)c1ccc2c(c1)nc(-c1ccc(OCc3ccc(Cl)c(Cl)c3)cc1)n2C1CCCC1 [Example 68, 1-cyclopentyl-2-[4-(3,4-dichlorobenzyloxy)phenyl]benzimidazole-5-carboxylic acid] | 280 nM |
| O=C(O)c1ccc2c(c1)nc(-c1ccc(OC(c3ccc(F)cc3)c3ccc(F)cc3)cc1F)n2C1CCCCC1 [Example 148, 2-{4-[bis(4-fluorophenyl)methoxy]-2-fluorophenyl}-1-cyclohexylbenzimidazole-5-carboxylic acid] | 38 nM |
| CC(C)NS(=O)(=O)c1ccc(-c2ccc(Cl)cc2)c(COc2ccc(-c3nc4cc(C(=O)O)ccc4n3C3CCCCC3)c(F)c2)c1 [Example 409, 2-{4-[2-(4-chlorophenyl)-5-(isopropylaminosulfonyl)benzyloxy]-2-fluorophenyl}-1-cyclohexylbenzimidazole-5-carboxylic acid hydrochloride] | 20 nM |
| Cc1nc(-c2ccc(C(=O)N(C)C)cc2)c(COc2ccc(-c3nc4cc(C(=O)O)ccc4n3C3CCCCC3)cc2)s1 [Example 231, 1-cyclohexyl-2-{4-[{4-(4-dimethylcarbamoylphenyl)-2-methyl-5-thiazolyl}methoxy]phenyl}benzimidazole-5-carboxylic acid] | 73 nM |
| CC(=O)N(C)c1ccc(-c2ccc(Cl)cc2)c(COc2ccc(-c3nc4cc(C(=O)O)ccc4n3C3CCCCC3)c(F)c2)c1 [Example 463, 2-[4-{2-(4-chlorophenyl)-5-(N-acetyl-N-methylamino)benzyloxy}-2-fluorophenyl]-1-cyclohexylbenzimidazole-5-carboxylic acid hydrochloride] | 26 nM |
| CN(C)C(=O)c1cc(COc2ccc(-c3nc4cc(C(=O)O)ccc4n3C3CCCCC3)c(F)c2)cc(-c2ccc(Cl)cc2)c1 [Example 372, 2-{4-[3-(4-chlorophenyl)-5-(dimethylcarbamoyl)benzyloxy]-2-fluorophenyl}-1-cyclohexylbenzimidazole-5-carboxylic acid hydrochloride] | 33 nM |
| O=C(O)c1ccc2c(c1)nc(-c1ccc(OCc3ccc(C(=O)N4CCCCC4)cc3-c3ccc(Cl)cc3)cc1)n2C1CCCCC1 [Example 351, 2-{4-[2-(4-chlorophenyl)-4-(piperidinocarbonyl)benzyloxy]phenyl}-1-cyclohexylbenzimidazole-5-carboxylic acid hydrochloride] | 19 nM |
| COc1cccc(Oc2ccc(-c3nc4cc(C(=O)O)ccc4n3C3CCCCC3)cc2)c1 [Example 109, 1-cyclohexyl-2-[4-(3-methoxyphenoxy)phenyl]benzimidazole-5-carboxylic acid] | 110 nM |
| O=C(O)c1ccc2c(c1)nc(-c1ccc(OCc3ccccc3-c3ccc(C(F)(F)F)cc3)cc1Cl)n2C1CCCCC1 [Example 186, 2-{2-chloro-4-[2-(4-trifluoromethylphenyl)benzyloxy]phenyl}-1-cyclohexylbenzimidazole-5-carboxylic acid] | 370 nM |
| Cc1nc(COc2ccc(-c3nc4cc(C(=O)O)ccc4n3C3CCCCC3)cc2)c(-c2ccc(Cl)cc2)s1 [Example 206, 2-{4-[{5-(4-chlorophenyl)-2-methyl-4-thiazolyl}methoxy]phenyl}-1-cyclohexylbenzimidazole-5-carboxylic acid] | 50 nM |
| O=C(O)c1ccc2c(c1)nc(-c1ccc(OCc3cc(Cl)ccc3-c3cc(Cl)cc(Cl)c3)cc1)n2C1CCCCC1 [Example 147, 2-{4-[3-chloro-6-(3,5-dichlorophenyl)benzyloxy]phenyl}-1-cyclohexylbenzimidazole-5-carboxylic acid] | 310 nM |
| NC(=O)c1ccc(COc2ccc(-c3nc4cc(C(=O)O)ccc4n3C3CCCCC3)cc2)c(-c2ccc(Cl)cc2)c1 [Example 225, 2-{4-[4-carbamoyl-2-(4-chlorophenyl)benzyloxy]phenyl}-1-cyclohexylbenzimidazole-5-carboxylic acid] | 14 nM |

Source: patent US20040082635A1, “Fused cyclic compounds and medicinal use thereof” (priority 2001, published 2004)
